From the supplement of paper PMC11451515

Columns and labels:
Settings in all cases: 48 h
SEM cells [1] = test: cell viability relative to DMSO control; higher = less cytotoxic
Outline: (§1)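 Viability was expressed as a per-plate percentage of DMSO wells, with cell-free wells as background. Leukemia cells (NOMO1 or SEM at 500 cells/well, P12-Ichikawa at 1000 cells/well) were adapted for at least four passages in each medium and seeded in 1536-well plates (5 μl). Library compounds in DMSO were pin-dosed over an 11-point threefold series from 47 μM to 0.79 nM, and CellTiter-Glo One luminescence was read after 48 h at 37°C.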

NOMO1 [2] = test: as above
Outline: as §1

P12-Ichikawa [3] = test: as above
Outline: as §1

SEM cells [4] = test: AUC of viability dose-response curve (% viability x log10 dose units); higher = less sensitive
Outline: (§2)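 Leukemia cells adapted to each medium were seeded in 1536-well plates (500 or 1000 cells/well). They were dosed with library compounds in DMSO at 11 threefold doses, 47 μM to 0.79 nM, for 48 h at 37°C. CellTiter-Glo One luminescence was normalised per plate to DMSO and cell-free wells. Area under the curve was integrated by trapezoidal rule over log10 doses on a four-parameter log-logistic fit; curves exceeding full viability were scaled and curves failing quality control removed.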

NOMO1 [5] = test: as above
Outline: as §2

P12-Ichikawa [6] = test: as above
Outline: as §2

CC\1=C(C(=O)N(\C=C1)C2=CC=C(C=C2)C3=NC=CO3)/C4=CC5=CN=C(N)N=C5C=C4
cell viability [%]
Settings | NOMO1 [2] | P12-Ichikawa [3] | SEM cells [1]
HPLM + 10% dialyzed FBS, 0.000781 µM | 98.8 | 105 | 96.2
HPLM + 10% dialyzed FBS, 0.00234 µM | 107 | 114 | 95
HPLM + 10% dialyzed FBS, 0.00702 µM | 126 | 111 | 109
HPLM + 10% dialyzed FBS, 0.0211 µM | 112 | 108 | 99.8
HPLM + 10% dialyzed FBS, 0.0632 µM | 108 | 115 | 100
HPLM + 10% dialyzed FBS, 0.19 µM | 117 | 111 | 103
HPLM + 10% dialyzed FBS, 0.569 µM | 122 | 109 | 76.2
HPLM + 10% dialyzed FBS, 1.71 µM | 122 | 117 | 84
HPLM + 10% dialyzed FBS, 5.12 µM | 123 | 105 | 40.8
HPLM + 10% dialyzed FBS, 15.4 µM | 108 | 110 | 36
HPLM + 10% dialyzed FBS, 46.1 µM | 94.9 | 91.3 | 27
RPMI 5 mM glucose + 10% FBS, 0.000781 µM | 97 | 106 | 87.3
RPMI 5 mM glucose + 10% FBS, 0.00234 µM | 103 | 112 | 115
RPMI 5 mM glucose + 10% FBS, 0.00702 µM | 96.1 | 108 | 127
RPMI 5 mM glucose + 10% FBS, 0.0211 µM | 104 | 102 | 121
RPMI 5 mM glucose + 10% FBS, 0.0632 µM | 112 | 112 | 108
RPMI 5 mM glucose + 10% FBS, 0.19 µM | 116 | 105 | 111
RPMI 5 mM glucose + 10% FBS, 0.569 µM | 114 | 109 | 97.4
RPMI 5 mM glucose + 10% FBS, 1.71 µM | 107 | 102 | 101
RPMI 5 mM glucose + 10% FBS, 5.12 µM | 124 | 106 | 38.5
RPMI 5 mM glucose + 10% FBS, 15.4 µM | 113 | 98.6 | 29.5
RPMI 5 mM glucose + 10% FBS, 46.1 µM | 100 | 80.2 | 21.3
RPMI 5 mM glucose + 10% dialyzed FBS, 0.000781 µM | 99.1 | 102 | 90
RPMI 5 mM glucose + 10% dialyzed FBS, 0.00234 µM | 89.6 | 103 | 104
RPMI 5 mM glucose + 10% dialyzed FBS, 0.00702 µM | 103 | 111 | 118
RPMI 5 mM glucose + 10% dialyzed FBS, 0.0211 µM | 119 | 112 | 102
RPMI 5 mM glucose + 10% dialyzed FBS, 0.0632 µM | 123 | 117 | 97.1
RPMI 5 mM glucose + 10% dialyzed FBS, 0.19 µM | 107 | 109 | 97.4
RPMI 5 mM glucose + 10% dialyzed FBS, 0.569 µM | 108 | 111 | 68.9
RPMI 5 mM glucose + 10% dialyzed FBS, 1.71 µM | 101 | 110 | 72.1
RPMI 5 mM glucose + 10% dialyzed FBS, 5.12 µM | 107 | 94.2 | 26.1
RPMI 5 mM glucose + 10% dialyzed FBS, 15.4 µM | 117 | 105 | 20.4
RPMI 5 mM glucose + 10% dialyzed FBS, 46.1 µM | 90 | 79.6 | 19.1

AUC of viability dose-response curve
Settings | NOMO1 [5] | P12-Ichikawa [6] | SEM cells [4]
HPLM + 10% dialyzed FBS | 470 | 472 | 383
RPMI 5 mM glucose + 10% FBS | 456 | 467 | 387
RPMI 5 mM glucose + 10% dialyzed FBS | 472 | 465 | 350
